Where two headings read alike, the source gives them in different places.
Assays:
[1] = biological target: T1, recombinant protein AR activation function-1 (AF1) (Homo sapiens, UniProt P10275); assay: Covalent binding to recombinant AR AF1 evaluated by SDS-PAGE
T1 sequence (P10275 144-486 limits assumed): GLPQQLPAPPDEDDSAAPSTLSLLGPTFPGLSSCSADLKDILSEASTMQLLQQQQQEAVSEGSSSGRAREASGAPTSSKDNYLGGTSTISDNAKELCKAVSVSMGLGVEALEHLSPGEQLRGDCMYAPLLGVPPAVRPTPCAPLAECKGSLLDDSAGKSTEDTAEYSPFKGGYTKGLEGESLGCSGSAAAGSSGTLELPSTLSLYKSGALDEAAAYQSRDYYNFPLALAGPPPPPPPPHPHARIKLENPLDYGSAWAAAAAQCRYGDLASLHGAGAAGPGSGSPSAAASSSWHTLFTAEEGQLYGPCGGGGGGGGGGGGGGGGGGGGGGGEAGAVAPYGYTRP
Experimental: Covalent binding experiments of 1d (also referred to as ^123I-EPI) to recombinant protein AR activation function-1 (AF1) was evaluated by SDS-PAGE (FIG. 15). After 6 h incubation at room temperature, 1d bound to the recombinant protein AR AF1. Less binding of 1d was observed when AR AF1 was pre-incubated with cold Z which is thought to bind to the same site as 1d. The SDS-PAGE gel was stained with Coomassie blue for loading control of the amount of AF1 protein.

[2] = biological target: T2, AR (Homo sapiens, UniProt P10275, T878A); assay: PSA(6.1 kb)-luciferase reporter assay in LNCaP cells (androgen-induced AR transcriptional activity); format: cell-based; settings: LNCaP, PSA(6.1 kb)-luciferase, 1 h pre-treatment, R1881 1 nM 24 h
T2 construct: LNCaP cells with endogenous AR; endogenous in cells; host or cells: LNCaP
T2 sequence (P10275 1-920 T878A): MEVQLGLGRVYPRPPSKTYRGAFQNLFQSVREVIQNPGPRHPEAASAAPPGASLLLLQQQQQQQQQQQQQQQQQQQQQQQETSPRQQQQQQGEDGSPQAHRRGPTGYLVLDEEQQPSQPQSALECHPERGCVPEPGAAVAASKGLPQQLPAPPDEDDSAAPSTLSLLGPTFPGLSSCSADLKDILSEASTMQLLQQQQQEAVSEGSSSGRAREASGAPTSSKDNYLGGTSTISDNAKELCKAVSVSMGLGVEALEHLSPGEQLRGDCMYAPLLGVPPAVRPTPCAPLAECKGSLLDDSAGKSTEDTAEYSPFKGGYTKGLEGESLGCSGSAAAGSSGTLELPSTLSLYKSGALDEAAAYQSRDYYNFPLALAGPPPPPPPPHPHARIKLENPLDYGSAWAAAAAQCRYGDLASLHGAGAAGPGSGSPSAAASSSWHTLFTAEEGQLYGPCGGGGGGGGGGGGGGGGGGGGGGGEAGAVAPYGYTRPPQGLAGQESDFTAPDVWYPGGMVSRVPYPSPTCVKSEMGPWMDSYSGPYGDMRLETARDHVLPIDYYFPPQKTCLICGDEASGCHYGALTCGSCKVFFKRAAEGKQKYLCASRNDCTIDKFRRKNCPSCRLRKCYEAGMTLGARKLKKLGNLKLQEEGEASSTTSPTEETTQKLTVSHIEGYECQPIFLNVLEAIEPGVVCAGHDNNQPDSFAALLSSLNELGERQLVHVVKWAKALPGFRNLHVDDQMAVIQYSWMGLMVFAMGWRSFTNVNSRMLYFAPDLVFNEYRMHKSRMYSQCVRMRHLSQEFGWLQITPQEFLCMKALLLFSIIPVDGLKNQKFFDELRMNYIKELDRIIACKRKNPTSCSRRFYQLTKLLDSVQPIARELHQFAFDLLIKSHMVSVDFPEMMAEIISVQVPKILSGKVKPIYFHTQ
Experimental: The PSA-luciferase (6.1 kb) reporter contains functional AREs to which AR binds in response to androgen to induce luciferase activity. LNCaP cells were transfected with the PSA(6.1 kb)-luciferase reporter for 24 h, and then treated with indicated concentration of 8d (also referred as EPI-iodide or iodinated EPI) with synthetic androgen, R1881 (1 nM) for 24 h. After 24 h of incubation with R1881, the cells were harvested, and relative luciferase activities were determined (FIG. 1A). To determine the IC50, treatments were normalized to the predicted maximal activity induction (in the absence of test compounds, vehicle only) (FIG. 1B).
To measure effect on AR, after the LNCaP cells were transfected with the PSA(6.1 kb)-luciferase reporter for 24 h, they were then treated with DMSO, 5 μM MDV3100, 25 μM Z (also referred to as EPI-002 or EPI), or 1.9 μM 8d with or without 1 nM R1881 for 24 h (FIG. 2A).
LNCaP cells were transiently transfected with PSA (6.1 kb)-luciferase for 24 h prior to pre-treatment with compounds of the invention (e.g., compounds 9d, 10d, 11d) ranging in concentration from 62.5 ng/ml to 1.5 ug/ml for 1 hour before the addition of vehicle, or synthetic androgen, R1881 (1 nM) to induce luciferase production. After 24 h of incubation with R1881, the cells were harvested, and relative luciferase activities were determined. To determine the IC50, treatments were normalized to the predicted maximal activity induction (in the absence of test compounds, vehicle only) (FIG. 1B).

[3] = Trial 1, read-out: IC50 Trial 1
[4] = Trial 2, read-out: IC50 Trial 2
[5] = Trial 3, read-out: IC50 Trial 3
[6] = Trial 4, read-out: IC50 Trial 4
[7] = average of 4 trials, read-out: IC50 Average

Question: Which results are given for `CC(C)(c1ccc(OC[C@H](O)CO)cc1)c1ccc(OC[C@H](O)CCl)c([123I])c1` [Compound 1d, (R)-3-(4-(2-(4-((S)-3-chloro-2-hydroxypropoxy)-3- ^123iodophenyl)propan-2-yl)phenoxy)propane-1,2-diol]?
Answer: covalent binding to recombinant protein AR AF1 ([1]; 6 h incubation at room temperature): bound; binding to AR AF1 after pre-incubation with cold Z ([1]; AR AF1 pre-incubated with cold Z): Less binding

Question: With `CC(C)(c1ccc(OC[C@H](O)CO)cc1)c1ccc(OC[C@H](O)CCl)c(Br)c1` [Compound 9d, (R)-3-(4-(2-(3-bromo-4-((S)-3-chloro-2-hydroxypropoxy)phenyl)propan-2-yl)phenoxy)propane-1,2-diol] as the compound, how does the IC50 [2, 3] read?
Answer: 2070 nM

Question: What about the IC50 [2, 4] of the same compound?
Answer: 2740 nM

Question: What about the IC50 [2, 5] of the same compound?
Answer: 2960 nM

Question: What about the IC50 [2, 6] of the same compound?
Answer: 3360 nM

Question: And the IC50 [2, 7]?
Answer: 2780 nM

Question: For `CC(C)(c1ccc(OC[C@H](O)CO)cc1)c1ccc(OC[C@H](O)CCl)c(Cl)c1` [Compound 10d, (R)-3-(4-(2-(3-chloro-4-((S)-3-chloro-2-hydroxypropoxy)phenyl)propan-2-yl)phenoxy)propane-1,2-diol], which IC50 [2, 3] is on record?
Answer: 2530 nM

Question: And the IC50 [2, 4]?
Answer: 2300 nM

Question: What about the IC50 [2, 5] of the same compound?
Answer: 2810 nM

Question: And the IC50 [2, 6]?
Answer: 2840 nM

Question: What about the IC50 [2, 7] of the same compound?
Answer: 2620 nM

Question: For `CC(C)(c1ccc(OC[C@H](O)CO)cc1)c1ccc(OC[C@H](O)CCl)c(F)c1` [Compound 11d, (R)-3-(4-(2-(4-((S)-3-chloro-2-hydroxypropoxy)-3-fluorophenyl)propan-2-yl)phenoxy)propane-1,2-diol], which IC50 [2, 3] is on record?
Answer: 5950 nM

Question: And the IC50 [2, 4]?
Answer: 3600 nM

Question: And the IC50 [2, 5]?
Answer: 7330 nM

Question: What about the IC50 [2, 6] of the same compound?
Answer: 5400 nM

Question: What about the IC50 [2, 7] of the same compound?
Answer: 5570 nM
